In brackets after ≈: the same amount, converted by molar mass.
Legend:
Format in all cases: physicochemical
[1] = Dissolution in MFD solution (Example 6); conditions: 50 ml MFD solution, Drug 1
Text: 1. The data for the tri-layer tablet is the average of the values for the two tablets tested.

[2] = Water solubility of the drug
[3] = Dissolution in phosphate buffered saline (PBS) solution (Example 3); conditions: 35 ml PBS solution, Drug 2
Description: For a comparative dissolution study, Control E, consisting of 35 mg of crystalline Drug 2 was prepared. The dissolution of drug was studied by placing two of the trilayer tablets and Control E each in 35 ml of a phosphate buffered saline (PBS) solution composed of 6 mm KH2PO4, 5 mM NaOH, 60 mM KCl and 30 mM NaCl. The data for the trilayer tablet is the average of the values for the two tablets tested.

[4] = Dissolution in phosphate-buffered solution pH 7.2 simulating intestinal environment (Example 7); conditions: 50 ml phosphate-buffered solution pH 7.2, Drug 2
Description: For a comparative dissolution study, Control G, consisting of 100 mg of crystalline Drug 2 was prepared. The dissolution of drug was studied by placing one each of the bi-layer tablet and Control G preparation containing an equal amount of Drug 2 in 50 ml of the phosphate-buffered solution of Example 3 (pH 7.2, osmotic pressure 5.3 atm) to simulate an intestinal environment of use.

[5] = Dissolution in MFD solution (Example 8, sertraline); conditions: 40 ml MFD solution
Description: For a comparative dissolution study, Control H, consisting of 111.4 mg of the crystalline drug, was used. The dissolution of drug was studied by placing the bilayer tablet and Control H each in 40 ml of MFD solution.

SMILES: CON(C)C(=O)C(O)[C@H](Cc1ccccc1)NC(=O)c1cc2cc(Cl)ccc2[nH]1 (stereo in doubt) [Control F, [R-(R*,S*)]-5-chloro-N-[2-hydroxy-3-[methoxymethylamino)-3-1-(phenylmethyl)propyl]propyl]-1H-indole-2-carboxamide]
- MDC (maximum drug concentration) [1]: 16 µg/mL
- [Drug] drug concentration ([1]; time 0 hr): 0 µg/mL
- [Drug] drug concentration ([1]; time 2 hr): 13 µg/mL
- [Drug] drug concentration ([1]; time 4 hr): 16 µg/mL
- [Drug] drug concentration ([1]; time 8 hr): 13 µg/mL
- [Drug] drug concentration ([1]; time 12 hr): 15 µg/mL
- [Drug] drug concentration ([1]; time 20 hr): 12 µg/mL
- [Drug] drug concentration ([1]; time 24 hr): 11 µg/mL

SMILES: CON(C)C(=O)C(O)[C@H](Cc1ccccc1)NC(=O)c1cc2cc(Cl)ccc2[nH]1 (stereo in doubt) [Drug 1, [R-(R*,S*)]-5-chloro-N-[2-hydroxy-3-[methoxymethylamino)-3-1-(phenylmethyl)propyl]propyl]-1H-indole-2-carboxamide]
- water solubility [2]: 1 µg/mL (≈ 2.4 µM)

SMILES: O=C(N[C@@H](Cc1ccccc1)[C@@H](O)C(=O)N1C[C@@H](O)[C@@H](O)C1)c1cc2cc(Cl)ccc2[nH]1 [Control E]
- MDC (maximum drug concentration) [3]: 171 µg/mL
- [Drug] drug concentration ([3]; time 0.3 hrs): 99 µg/mL
- [Drug] drug concentration ([3]; time 1.5 hrs): 148 µg/mL
- [Drug] drug concentration ([3]; time 2.0 hrs): 165 µg/mL
- [Drug] drug concentration ([3]; time 3.0 hrs): 137 µg/mL
- [Drug] drug concentration ([3]; time 4.0 hrs): 142 µg/mL
- [Drug] drug concentration ([3]; time 12.0 hrs): 157 µg/mL
- [Drug] drug concentration ([3]; time 20.0 hrs): 171 µg/mL

SMILES: O=C(N[C@@H](Cc1ccccc1)[C@@H](O)C(=O)N1C[C@@H](O)[C@@H](O)C1)c1cc2cc(Cl)ccc2[nH]1 [Control G]
- MDC (maximum drug concentration) [4]: 77 µg/mL
- [Drug] drug concentration ([4]; time 0 hr): 0 µg/mL
- [Drug] drug concentration ([4]; time 1 hr): 59 µg/mL
- [Drug] drug concentration ([4]; time 2 hr): 72 µg/mL
- [Drug] drug concentration ([4]; time 4 hr): 72 µg/mL
- [Drug] drug concentration ([4]; time 8 hr): 77 µg/mL
- [Drug] drug concentration ([4]; time 12 hr): 71 µg/mL
- [Drug] drug concentration ([4]; time 18 hr): 71 µg/mL
- [Drug] drug concentration ([4]; time 24 hr): 75 µg/mL

SMILES: CN[C@H]1CC[C@@H](c2ccc(Cl)c(Cl)c2)c2ccccc21 [Control H, sertraline]
- MDC (maximum drug concentration) [5]: 401 µg/mL
- AUC ([5]; time 0 hr): 0 µg·min/mL
- [Drug] drug concentration ([5]; time 0 hr): 0 µg/mL
- [Drug] drug concentration ([5]; time 0.2 hr): 278 µg/mL
- [Drug] drug concentration ([5]; time 0.3 hr): 401 µg/mL
- [Drug] drug concentration ([5]; time 0.7 hr): 341 µg/mL
- [Drug] drug concentration ([5]; time 1.5 hr): 217 µg/mL
- [Drug] drug concentration ([5]; time 2 hr): 188 µg/mL
- [Drug] drug concentration ([5]; time 3 hr): 168 µg/mL
- [Drug] drug concentration ([5]; time 4 hr): 152 µg/mL
- [Drug] drug concentration ([5]; time 6 hr): 160 µg/mL
- [Drug] drug concentration ([5]; time 10 hr): 137 µg/mL
- [Drug] drug concentration ([5]; time 14 hr): 135 µg/mL
- [Drug] drug concentration ([5]; time 24 hr): 191 µg/mL
